From US20260022142A1, “MACROCYCLIC IMMUNOMODULATORS” (Bristol-Myers Squibb Company, priority 2022, published 2026) come the findings set out here.

Bridge positions count the residues as written; N and C are the ends. Square brackets hold non-standard residues; d marks the D form. Peptide text beside a SMILES is read from it. * marks the point of attachment. Phe(3-CF3) = N[C@@H](Cc1cccc(C(F)(F)F)c1)C(=O)O; Phe(4-COOH) = N[C@@H](Cc1ccc(C(=O)O)cc1)C(=O)O; Phe(3,5-F2) = N[C@@H](Cc1cc(F)cc(F)c1)C(=O)O; Bip = N[C@@H](Cc1ccc(-c2ccccc2)cc1)C(=O)O; NH(CH2)14COOH = O=C(O)CCCCCCCCCCCCCCN*; Phe(3-Me) = Cc1cccc(C[C@H](N)C(=O)O)c1; NH(CH2)12COOH = O=C(O)CCCCCCCCCCCCN*; PEG6 = NCCOCCOCCOCCOCCOCCOCCC(=O)O; Val(3-OH) = CC(C)(O)[C@H](N)C(=O)O; Val(3-F) = CC(C)(F)[C@H](N)C(=O)O; 4Pal = N[C@@H](Cc1ccncc1)C(=O)O; Cha = N[C@@H](CC1CCCCC1)C(=O)O; Cit = NC(=O)NCCC[C@H](N)C(=O)O; aThr = C[C@H](O)[C@H](N)C(=O)O; PEG4 = NCCOCCOCCOCCOCCC(=O)O; Carboxymethyl = O=C(O)C*; Orn = NCCC[C@H](N)C(=O)O; Aun = NCCCCCCCCCCC(=O)O; Dab = NCC[C@H](N)C(=O)O; Dap = NC[C@H](N)C(=O)O; AEEA = NCCOCCOCC(=O)O

T1 sequence (Q15116 25-288): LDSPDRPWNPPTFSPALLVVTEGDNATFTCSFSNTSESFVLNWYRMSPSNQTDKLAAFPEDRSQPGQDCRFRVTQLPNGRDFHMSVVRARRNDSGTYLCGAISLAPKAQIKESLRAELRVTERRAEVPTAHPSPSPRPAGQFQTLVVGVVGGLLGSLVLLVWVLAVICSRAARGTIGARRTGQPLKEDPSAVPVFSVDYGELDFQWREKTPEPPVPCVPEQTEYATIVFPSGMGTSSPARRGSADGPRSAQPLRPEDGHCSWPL

This test concerns the target T1, PD-1/PD-L1 interaction (PE-labeled human PD-L1-Ig binding to Jurkat cell line over-expressing human PD-1) (Homo sapiens, UniProt Q15116).
T1 construct: expressed in transfected cells; host or cells: Jurkat
Kind of test: Jurkat-PD-1 Cell Binding High-Content Screening Assay (CBA). In kind it is cell-based. The note with it: Jurkat cell line over-expressing human PD-1; PE-labeled PD-L1-Ig 20 nM final; read-out: Jurkat hPD1-PDL1 IC50. The procedure, abridged:
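Human PD-L1-Ig carrying a covalent PE label on its Ig tag serves as the probe, applied at 20 nM final to compound-treated (2 h, 37° C) Jurkat-hPD-1 cells in medium with 10% fetal calf serum. After one hour, fixation and nuclear staining precede high-content image analysis.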
In general, IC50 refers to the concentration that gives 50% inhibition. Regarding `Cc1cccc(C[C@@H]2NC(=O)[C@H](CC(=O)O)NC(=O)[C@H](Cc3ccc(OCC(=O)O)cc3)NC(=O)[C@H](CN)NC(=O)CSC[C@@H](C(=O)N[C@@H](C)C(=O)N[C@@H](CC(=O)O)C(=O)NCCOCCOCC(=O)NCCCCCCCCCCC(=O)O)NC(=O)[C@H]([C@@H](C)O)NC(=O)[C@H](C(C)C)NC(=O)[C@H](CC3CCCCC3)NC(=O)[C@H](CCN)NC(=O)[C@@H](CC(C)C)NC(=O)[C@H](CCCN)NC(=O)[C@H](CCCNC(N)=O)NC(=O)[C@H](Cc3ccc(-c4ccccc4)cc3)NC(=O)[C@H](C(C)C)NC2=O)c1` [Compound 1008] ({CH2CO}-[Dap]Y(Carboxymethyl)D[Phe(3-Me)]V[Bip][Cit][Orn][dL][Dab][Cha]VTCAD[AEEA][Aun]-OH; thioether N-14), the IC50 was 10.5 nM.
As for `Cc1cccc(C[C@@H]2NC(=O)[C@H](CC(=O)O)NC(=O)[C@H](Cc3ccc(OCC(=O)O)cc3)NC(=O)[C@H](CN)NC(=O)CSC[C@@H](C(=O)N[C@@H](CCN)C(=O)NCCCCCCCCCCCCC(=O)O)NC(=O)[C@H](CO)NC(=O)[C@H](C(C)(C)O)NC(=O)[C@H](CC3CCCCC3)NC(=O)[C@H](CCN)NC(=O)[C@@H](CC(C)C)NC(=O)[C@H](CCCN)NC(=O)[C@H](Cc3ccc(OCC(=O)O)cc3)NC(=O)[C@H](Cc3ccc(-c4ccccc4)cc3)NC(=O)[C@H](Cc3ccc(OCC(=O)O)cc3)NC2=O)c1` [Compound 2222] ({CH2CO}-[Dap]Y(Carboxymethyl)D[Phe(3-Me)]Y(Carboxymethyl)[Bip]Y(Carboxymethyl)[Orn][dL][Dab][Cha][Val(3-OH)]SC[Dab]-{NH(CH2)12COOH}; thioether N-14), the half-maximal inhibitory concentration (IC50) is 17.6 nM.
As to `Cc1cccc(C[C@@H]2NC(=O)[C@H](CC(=O)O)NC(=O)[C@H](Cc3ccc(OCC(=O)O)cc3)NC(=O)[C@H]([C@H](C)O)NC(=O)CSC[C@@H](C(=O)N[C@@H](CCN)C(=O)NCCOCCOCCOCCOCCOCCOCCC(=O)NCCCCCCCCCCCCCCC(=O)O)NC(=O)[C@H](CCC(=O)O)NC(=O)[C@H](C(C)C)NC(=O)[C@H](CC3CCCCC3)NC(=O)[C@H](CCN)NC(=O)[C@@H](CC(C)C)NC(=O)[C@H](CCCN)NC(=O)[C@H](Cc3ccc(OCC(=O)O)cc3)NC(=O)[C@H](Cc3ccc(-c4ccccc4)cc3)NC(=O)[C@H](Cc3ccc(C(=O)O)cc3)NC2=O)c1` [Compound 3911] ({CH2CO}-[aThr]Y(Carboxymethyl)D[Phe(3-Me)][Phe(4-COOH)][Bip]Y(Carboxymethyl)[Orn][dL][Dab][Cha]VEC[Dab][PEG6]-{NH(CH2)14COOH}; thioether N-14), the IC50 was 90.5 nM.
Turning to `Cc1cccc(C[C@@H]2NC(=O)[C@H](CC(=O)O)NC(=O)[C@H](Cc3ccncc3)NC(=O)[C@H](Cc3ccc(OCC(=O)O)cc3)NC(=O)CSC[C@@H](C(=O)N[C@@H](CN)C(=O)NCCCCCCCCCCC(=O)O)NC(=O)[C@H]([C@@H](C)O)NC(=O)[C@H](C(C)C)NC(=O)[C@H](CC3CCCCC3)NC(=O)[C@H](CCN)NC(=O)[C@@H](CC(C)C)NC(=O)[C@H](CCCN)NC(=O)[C@H](C(C)C)NC(=O)[C@H](Cc3ccc(-c4ccccc4)cc3)NC(=O)[C@H](C(C)C)NC2=O)c1` [Compound 1163] ({CH2CO}-Y(Carboxymethyl)[4Pal]D[Phe(3-Me)]V[Bip]V[Orn][dL][Dab][Cha]VTC[Dap][Aun]-OH; thioether N-14), the IC50 turned out to be 55.1 nM.
As for `Cc1cccc(C[C@@H]2NC(=O)[C@H](CC(=O)O)NC(=O)[C@H](Cc3ccc(OCC(=O)O)cc3)NC(=O)[C@H](CN)NC(=O)CSC[C@@H](C(=O)NCCCCCCCCCCC(=O)O)NC(=O)[C@H](CCCN)NC(=O)[C@H](C(C)C)NC(=O)[C@H](CC3CCCCC3)NC(=O)[C@H](CCN)NC(=O)[C@@H](CC(C)C)NC(=O)[C@H](CCCN)NC(=O)[C@H](Cc3ccc(O)cc3)NC(=O)[C@H](Cc3ccc(-c4ccccc4)cc3)NC(=O)[C@H](C(C)C)NC2=O)c1` [Compound 2694] ({CH2CO}-[Dap]Y(Carboxymethyl)D[Phe(3-Me)]V[Bip]Y[Orn][dL][Dab][Cha]V[Orn]C[Aun]-OH; thioether N-14), the figure is 9.9 nM; as for `CC(C)C[C@H]1NC(=O)[C@H](CCCN)NC(=O)[C@H](Cc2ccc(C(=O)O)cc2)NC(=O)[C@H](Cc2ccc(-c3ccccc3)cc2)NC(=O)[C@H](Cc2ccc(C(=O)O)cc2)NC(=O)[C@H](Cc2cccc(C(F)(F)F)c2)NC(=O)[C@H](CC(=O)O)NC(=O)[C@H](Cc2ccc(OCC(=O)O)cc2)NC(=O)[C@H](C)NC(=O)CSC[C@@H](C(=O)N[C@@H](CCN)C(=O)NCCOCCOCCOCCOCCC(=O)NCCCCCCCCCCCCC(=O)O)NC(=O)[C@H](Cc2c[nH]cn2)NC(=O)[C@H](C(C)(C)O)NC(=O)[C@H](CC2CCCCC2)NC(=O)[C@H](CCN)NC1=O` [Compound 2953] ({CH2CO}-AY(Carboxymethyl)D[Phe(3-CF3)][Phe(4-COOH)][Bip][Phe(4-COOH)][Orn][dL][Dab][Cha][Val(3-OH)]HC[Dab][PEG4]-{NH(CH2)12COOH}; thioether N-14), 49.3 nM; as for `Cc1cccc(C[C@@H]2NC(=O)[C@H](CC(=O)O)NC(=O)[C@H](Cc3ccc(OCC(=O)O)cc3)NC(=O)[C@H](Cc3ccncc3)NC(=O)CSC[C@@H](C(=O)N[C@@H](CCN)C(=O)NCCOCCOCC(=O)NCCCCCCCCCCC(=O)O)NC(=O)[C@H](CO)NC(=O)[C@H](C(C)(C)O)NC(=O)[C@H](CC3CCCCC3)NC(=O)[C@H](CCN)NC(=O)[C@@H](CC(C)C)NC(=O)[C@H](CCCN)NC(=O)[C@H](Cc3ccc(C(=O)O)cc3)NC(=O)[C@H](Cc3ccc(-c4ccccc4)cc3)NC(=O)[C@H](Cc3ccc(C(=O)O)cc3)NC2=O)c1` [Compound 2862] ({CH2CO}-[4Pal]Y(Carboxymethyl)D[Phe(3-Me)][Phe(4-COOH)][Bip][Phe(4-COOH)][Orn][dL][Dab][Cha][Val(3-OH)]SC[Dab][AEEA][Aun]-OH; thioether N-14), 228 nM.
Then `Cc1cccc(C[C@@H]2NC(=O)[C@H](CC(=O)O)NC(=O)[C@H](Cc3ccc(OCC(=O)O)cc3)NC(=O)[C@H](CN)NC(=O)CSC[C@@H](C(=O)N[C@@H](CCN)C(=O)NCCOCCOCC(=O)NCCCCCCCCCCC(=O)O)NC(=O)[C@H](CCC(=O)O)NC(=O)[C@H](C(C)C)NC(=O)[C@H](Cc3cc(F)cc(F)c3)NC(=O)[C@H](CCN)NC(=O)[C@@H](CC(C)C)NC(=O)[C@H](CCCN)NC(=O)[C@H](Cc3ccc(OCC(=O)O)cc3)NC(=O)[C@H](Cc3ccc(-c4ccccc4)cc3)NC(=O)[C@H](Cc3ccc(C(=O)O)cc3)NC2=O)c1` [Compound 1269] ({CH2CO}-[Dap]Y(Carboxymethyl)D[Phe(3-Me)][Phe(4-COOH)][Bip]Y(Carboxymethyl)[Orn][dL][Dab][Phe(3,5-F2)]VEC[Dab][AEEA][Aun]-OH; thioether N-14), with 11.4 nM; and `Cc1cccc(C[C@@H]2NC(=O)[C@H](CC(=O)O)NC(=O)[C@H](Cc3ccc(OCC(=O)O)cc3)NC(=O)[C@H](CCCNC(=N)N)NC(=O)CSC[C@@H](C(=O)N[C@@H](CCN)C(=O)NCCCCCCCCCCC(=O)O)NC(=O)[C@H](CCC(N)=O)NC(=O)[C@H](C(C)C)NC(=O)[C@H](CC3CCCCC3)NC(=O)[C@H](CCN)NC(=O)[C@@H](CC(C)C)NC(=O)[C@H](CCCN)NC(=O)[C@H](Cc3ccc(OCC(=O)O)cc3)NC(=O)[C@H](Cc3ccc(-c4ccccc4)cc3)NC(=O)[C@H](C(C)(C)F)NC2=O)c1` [Compound 2122] ({CH2CO}-RY(Carboxymethyl)D[Phe(3-Me)][Val(3-F)][Bip]Y(Carboxymethyl)[Orn][dL][Dab][Cha]VQC[Dab][Aun]-OH; thioether N-14), with 10.9 nM.
